According to ChEMBL document CHEMBL2429768, “Eco-friendly synthesis and antimicrobial activities of substituted-5-(1H-indol-3-yl)methylene)-2,2-dimethyl-1,3-dioxane-4,6-dione derivatives” (2013):
Values after ≈ are worked out from the molar mass of the structure shown.

What was measured:
Assay type in all cases: functional
Rhizoctonia solani [1] = assay: Antifungal activity against Rhizoctonia solani after 72 hrs by agar well diffusion method
Staphylococcus aureus [2] = assay: Antibacterial activity against Staphylococcus aureus ATCC 6538 after 24 hrs by agar well diffusion method; conditions: ATCC 6538, 24 h
Bacillus subtilis [3] = assay: Antibacterial activity against Bacillus subtilis after 24 hrs by agar well diffusion method
Klebsiella pneumoniae [4] = assay: Antibacterial activity against Klebsiella pneumoniae at 100 ug/ml after 24 hrs by agar well diffusion method; conditions: read-out: DIZ
Aspergillus niger [5] = assay: Antifungal activity against Aspergillus niger at 300 ug/ml after 72 hrs by agar well diffusion method; conditions: read-out: DIZ
Rhizoctonia solani [6] = assay: Antifungal activity against Rhizoctonia solani at 200 ug/ml after 72 hrs by agar well diffusion method; conditions: read-out: DIZ
Aspergillus niger [7] = assay: Antifungal activity against Aspergillus niger at 50 ug/ml after 72 hrs by agar well diffusion method; conditions: read-out: DIZ
Bacillus subtilis [8] = assay: Antibacterial activity against Bacillus subtilis at 100 ug/ml after 24 hrs by agar well diffusion method; conditions: read-out: DIZ
Escherichia coli [9] = assay: Antibacterial activity against Escherichia coli ATCC 8739 after 24 hrs by agar well diffusion method; conditions: ATCC 8739, 24 h
Escherichia coli [10] = assay: Antibacterial activity against Escherichia coli ATCC 8739 at 500 ug/ml after 24 hrs by agar well diffusion method; conditions: ATCC 8739, 24 h, read-out: DIZ
Aspergillus niger [11] = assay: Antifungal activity against Aspergillus niger after 72 hrs by agar well diffusion method
Fusarium oxysporum [12] = assay: Antifungal activity against Fusarium oxysporum after 72 hrs by agar well diffusion method
Aspergillus niger [13] = assay: Antifungal activity against Aspergillus niger at 500 ug/ml after 72 hrs by agar well diffusion method; conditions: read-out: DIZ
Escherichia coli [14] = assay: Antibacterial activity against Escherichia coli ATCC 8739 at 50 ug/ml after 24 hrs by agar well diffusion method; conditions: ATCC 8739, 24 h, read-out: DIZ
Fusarium oxysporum [15] = assay: Antifungal activity against Fusarium oxysporum at 100 ug/ml after 72 hrs by agar well diffusion method; conditions: read-out: DIZ
Klebsiella pneumoniae [16] = assay: Antibacterial activity against Klebsiella pneumoniae at 200 ug/ml after 24 hrs by agar well diffusion method; conditions: read-out: DIZ
Fusarium oxysporum [17] = assay: Antifungal activity against Fusarium oxysporum at 50 ug/ml after 72 hrs by agar well diffusion method; conditions: read-out: DIZ
Staphylococcus aureus [18] = assay: Antibacterial activity against Staphylococcus aureus ATCC 6538 at 300 ug/ml after 24 hrs by agar well diffusion method; conditions: ATCC 6538, 24 h, read-out: DIZ
Rhizoctonia solani [19] = assay: Antifungal activity against Rhizoctonia solani at 100 ug/ml after 72 hrs by agar well diffusion method; conditions: read-out: DIZ
Bacillus subtilis [20] = assay: Antibacterial activity against Bacillus subtilis at 300 ug/ml after 24 hrs by agar well diffusion method; conditions: read-out: DIZ
Staphylococcus aureus [21] = assay: Antibacterial activity against Staphylococcus aureus ATCC 6538 at 50 ug/ml after 24 hrs by agar well diffusion method; conditions: ATCC 6538, 24 h, read-out: DIZ
Bacillus subtilis [22] = assay: Antibacterial activity against Bacillus subtilis at 50 ug/ml after 24 hrs by agar well diffusion method; conditions: read-out: DIZ
Fusarium oxysporum [23] = assay: Antifungal activity against Fusarium oxysporum at 200 ug/ml after 72 hrs by agar well diffusion method; conditions: read-out: DIZ
Escherichia coli [24] = assay: Antibacterial activity against Escherichia coli ATCC 8739 at 300 ug/ml after 24 hrs by agar well diffusion method; conditions: ATCC 8739, 24 h, read-out: DIZ
Aspergillus flavus [25] = assay: Antifungal activity against Aspergillus flavus at 500 ug/ml after 72 hrs by agar well diffusion method; conditions: read-out: DIZ
Fusarium oxysporum [26] = assay: Antifungal activity against Fusarium oxysporum at 500 ug/ml after 72 hrs by agar well diffusion method; conditions: read-out: DIZ
Staphylococcus aureus [27] = assay: Antibacterial activity against Staphylococcus aureus ATCC 6538 at 100 ug/ml after 24 hrs by agar well diffusion method; conditions: ATCC 6538, 24 h, read-out: DIZ
Rhizoctonia solani [28] = assay: Antifungal activity against Rhizoctonia solani at 300 ug/ml after 72 hrs by agar well diffusion method; conditions: read-out: DIZ
Klebsiella pneumoniae [29] = assay: Antibacterial activity against Klebsiella pneumoniae at 300 ug/ml after 24 hrs by agar well diffusion method; conditions: read-out: DIZ
Staphylococcus aureus [30] = assay: Antibacterial activity against Staphylococcus aureus ATCC 6538 at 200 ug/ml after 24 hrs by agar well diffusion method; conditions: ATCC 6538, 24 h, read-out: DIZ
Aspergillus flavus [31] = assay: Antifungal activity against Aspergillus flavus at 300 ug/ml after 72 hrs by agar well diffusion method; conditions: read-out: DIZ
Klebsiella pneumoniae [32] = assay: Antibacterial activity against Klebsiella pneumoniae at 500 ug/ml after 24 hrs by agar well diffusion method; conditions: read-out: DIZ
Aspergillus flavus [33] = assay: Antifungal activity against Aspergillus flavus at 50 ug/ml after 72 hrs by agar well diffusion method; conditions: read-out: DIZ
Aspergillus niger [34] = assay: Antifungal activity against Aspergillus niger at 200 ug/ml after 72 hrs by agar well diffusion method; conditions: read-out: DIZ
Bacillus subtilis [35] = assay: Antibacterial activity against Bacillus subtilis at 200 ug/ml after 24 hrs by agar well diffusion method; conditions: read-out: DIZ
Klebsiella pneumoniae [36] = assay: Antibacterial activity against Klebsiella pneumoniae at 50 ug/ml after 24 hrs by agar well diffusion method; conditions: read-out: DIZ
Escherichia coli [37] = assay: Antibacterial activity against Escherichia coli ATCC 8739 at 200 ug/ml after 24 hrs by agar well diffusion method; conditions: ATCC 8739, 24 h, read-out: DIZ
Rhizoctonia solani [38] = assay: Antifungal activity against Rhizoctonia solani at 500 ug/ml after 72 hrs by agar well diffusion method; conditions: read-out: DIZ
Klebsiella pneumoniae [39] = assay: Antibacterial activity against Klebsiella pneumoniae after 24 hrs by agar well diffusion method
Aspergillus flavus [40] = assay: Antifungal activity against Aspergillus flavus at 200 ug/ml after 72 hrs by agar well diffusion method; conditions: read-out: DIZ
Rhizoctonia solani [41] = assay: Antifungal activity against Rhizoctonia solani at 50 ug/ml after 72 hrs by agar well diffusion method; conditions: read-out: DIZ
Aspergillus flavus [42] = assay: Antifungal activity against Aspergillus flavus at 100 ug/ml after 72 hrs by agar well diffusion method; conditions: read-out: DIZ
Fusarium oxysporum [43] = assay: Antifungal activity against Fusarium oxysporum at 300 ug/ml after 72 hrs by agar well diffusion method; conditions: read-out: DIZ
Escherichia coli [44] = assay: Antibacterial activity against Escherichia coli ATCC 8739 at 100 ug/ml after 24 hrs by agar well diffusion method; conditions: ATCC 8739, 24 h, read-out: DIZ
Aspergillus niger [45] = assay: Antifungal activity against Aspergillus niger at 100 ug/ml after 72 hrs by agar well diffusion method; conditions: read-out: DIZ
Staphylococcus aureus [46] = assay: Antibacterial activity against Staphylococcus aureus ATCC 6538 at 500 ug/ml after 24 hrs by agar well diffusion method; conditions: ATCC 6538, 24 h, read-out: DIZ
Bacillus subtilis [47] = assay: Antibacterial activity against Bacillus subtilis at 500 ug/ml after 24 hrs by agar well diffusion method; conditions: read-out: DIZ
Aspergillus flavus [48] = assay: Antifungal activity against Aspergillus flavus after 72 hrs by agar well diffusion method

CCn1cc(C=C2C(=O)OC(C)(C)OC2=O)c2ccccc21
MIC (Rhizoctonia solani [1]): 35 µg/mL (≈ 117 µM) | MIC (Staphylococcus aureus [2]): 25 µg/mL (≈ 83.5 µM) | MIC (Bacillus subtilis [3]): 30 µg/mL (≈ 100 µM) | zone of inhibition at 100 µg/mL (Klebsiella pneumoniae [4]): 14 mm | zone of inhibition at 300 µg/mL (Aspergillus niger [5]): 18 mm | zone of inhibition at 200 µg/mL (Rhizoctonia solani [6]): 16 mm | zone of inhibition at 50 µg/mL (Aspergillus niger [7]): 6 mm | zone of inhibition at 100 µg/mL (Bacillus subtilis [8]): 9 mm | MIC (Escherichia coli [9]): 15 µg/mL (≈ 50.1 µM) | zone of inhibition at 500 µg/mL (Escherichia coli [10]): 30 mm | MIC (Aspergillus niger [11]): 40 µg/mL (≈ 134 µM) | MIC (Fusarium oxysporum [12]): 35 µg/mL (≈ 117 µM) | zone of inhibition at 500 µg/mL (Aspergillus niger [13]): 25 mm | zone of inhibition at 50 µg/mL (Escherichia coli [14]): 8 mm | zone of inhibition at 100 µg/mL (Fusarium oxysporum [15]): 12 mm | zone of inhibition at 200 µg/mL (Klebsiella pneumoniae [16]): 18 mm | zone of inhibition at 50 µg/mL (Fusarium oxysporum [17]): 7 mm | zone of inhibition at 300 µg/mL (Staphylococcus aureus [18]): 18 mm | zone of inhibition at 100 µg/mL (Rhizoctonia solani [19]): 12 mm | zone of inhibition at 300 µg/mL (Bacillus subtilis [20]): 14 mm | zone of inhibition at 50 µg/mL (Staphylococcus aureus [21]): 6 mm | zone of inhibition at 50 µg/mL (Bacillus subtilis [22]): 4 mm | zone of inhibition at 200 µg/mL (Fusarium oxysporum [23]): 16 mm | zone of inhibition at 300 µg/mL (Escherichia coli [24]): 20 mm | zone of inhibition at 500 µg/mL (Aspergillus flavus [25]): 23 mm | zone of inhibition at 500 µg/mL (Fusarium oxysporum [26]): 29 mm | zone of inhibition at 100 µg/mL (Staphylococcus aureus [27]): 10 mm | zone of inhibition at 300 µg/mL (Rhizoctonia solani [28]): 21 mm | zone of inhibition at 300 µg/mL (Klebsiella pneumoniae [29]): 23 mm | zone of inhibition at 200 µg/mL (Staphylococcus aureus [30]): 14 mm | zone of inhibition at 300 µg/mL (Aspergillus flavus [31]): 15 mm | zone of inhibition at 500 µg/mL (Klebsiella pneumoniae [32]): 31 mm | zone of inhibition at 50 µg/mL (Aspergillus flavus [33]): 4 mm | zone of inhibition at 200 µg/mL (Aspergillus niger [34]): 14 mm | zone of inhibition at 200 µg/mL (Bacillus subtilis [35]): 11 mm | zone of inhibition at 50 µg/mL (Klebsiella pneumoniae [36]): 9 mm | zone of inhibition at 200 µg/mL (Escherichia coli [37]): 16 mm | zone of inhibition at 500 µg/mL (Rhizoctonia solani [38]): 29 mm | MIC (Klebsiella pneumoniae [39]): 15 µg/mL (≈ 50.1 µM) | zone of inhibition at 200 µg/mL (Aspergillus flavus [40]): 12 mm | zone of inhibition at 50 µg/mL (Rhizoctonia solani [41]): 7 mm | zone of inhibition at 100 µg/mL (Aspergillus flavus [42]): 9 mm | zone of inhibition at 300 µg/mL (Fusarium oxysporum [43]): 21 mm | zone of inhibition at 100 µg/mL (Escherichia coli [44]): 13 mm | zone of inhibition at 100 µg/mL (Aspergillus niger [45]): 10 mm | zone of inhibition at 500 µg/mL (Staphylococcus aureus [46]): 25 mm | zone of inhibition at 500 µg/mL (Bacillus subtilis [47]): 22 mm | MIC (Aspergillus flavus [48]): 40 µg/mL (≈ 134 µM)
